Patent US20100190788A1, “Amide derivatives as kinase inhitors” (priority 2005, published 2010)

Molecular target: T1, human ROCKα/ROCKII mix (Homo sapiens, UniProt O75116)
T1 construct: purchased Upstate Biotechnology 14-451
Experiment: ROCK inhibition, fluorescence polarization (FP) assay with ROCK IMAP Kit
Type: biochemical
Conditions: Table 1, compounds of Formula IV20
Method: The compounds were tested for inhibition of human ROCKα/ROCKII mix.
The inhibition assays were performed with a fluorescence polarization (FP) assay using the commercially available ROCK IMAP Kit from Molecular Devices (Product ID. No. R8093), essentially in accordance with the protocol supplied by the manufacturer. […] The enzyme mix ROCKα/ROCKII was obtained from Upstate Biotechnology (Product ID No 14-451).
In summary, all compounds were screened in the wells of a 384 well plate for enzymatic inhibition with concentrations varying from 100 μM to 0.3 nM using a stepwise 3 (or 2)-fold dilution.
To perform the assay, 1 μl of a solution of the compound to be tested in DMSO (at each concentration) was added to 2 μl of a solution of the enzyme in 10 mM Tris-HCl, 10 mM MgCl2, 0.1% BSA, 0.05% NaN3, pH 7.2. The final concentration of the enzyme was 2.6 nM.
After incubating for 30 minutes at RT, 2 μl of a mixture of ATP and the protein substrate in 10 mM Tris-HCl, 10 mM MgCl2, 0.1% BSA, 0.05% NaN3, pH 7.2 was added. The final concentration of the ATP was 10 μM and final concentration of protein substrate was 0.2 μM.
After incubating for 60 minutes at RT, 12 μl of the IMAP Binding Solution (mix of the IMAP Binding Buffer A (1×) and the IMAP Binding Reagent (from the ROCK IMAP kit)) was added.
The mixture thus obtained (total volume: 17 μl) was incubated for 60 minutes at RT, upon which the fluorescence polarization was measured using an automated plate reader (Perkin Elmer, Model Envision 2100-0010 HTS) with FP filters: excitation filter FITC FP 480 and emission filters FITC FP P-pol 535 and FITC FP S-pol 535 (Perkin-Elmer). The results were fitted to a curve using the XL-Fit algorithm and IC50 values were calculated for each fitted curve, again using the XL-Fit algorithm.

T1 sequence (O75116 whole entry): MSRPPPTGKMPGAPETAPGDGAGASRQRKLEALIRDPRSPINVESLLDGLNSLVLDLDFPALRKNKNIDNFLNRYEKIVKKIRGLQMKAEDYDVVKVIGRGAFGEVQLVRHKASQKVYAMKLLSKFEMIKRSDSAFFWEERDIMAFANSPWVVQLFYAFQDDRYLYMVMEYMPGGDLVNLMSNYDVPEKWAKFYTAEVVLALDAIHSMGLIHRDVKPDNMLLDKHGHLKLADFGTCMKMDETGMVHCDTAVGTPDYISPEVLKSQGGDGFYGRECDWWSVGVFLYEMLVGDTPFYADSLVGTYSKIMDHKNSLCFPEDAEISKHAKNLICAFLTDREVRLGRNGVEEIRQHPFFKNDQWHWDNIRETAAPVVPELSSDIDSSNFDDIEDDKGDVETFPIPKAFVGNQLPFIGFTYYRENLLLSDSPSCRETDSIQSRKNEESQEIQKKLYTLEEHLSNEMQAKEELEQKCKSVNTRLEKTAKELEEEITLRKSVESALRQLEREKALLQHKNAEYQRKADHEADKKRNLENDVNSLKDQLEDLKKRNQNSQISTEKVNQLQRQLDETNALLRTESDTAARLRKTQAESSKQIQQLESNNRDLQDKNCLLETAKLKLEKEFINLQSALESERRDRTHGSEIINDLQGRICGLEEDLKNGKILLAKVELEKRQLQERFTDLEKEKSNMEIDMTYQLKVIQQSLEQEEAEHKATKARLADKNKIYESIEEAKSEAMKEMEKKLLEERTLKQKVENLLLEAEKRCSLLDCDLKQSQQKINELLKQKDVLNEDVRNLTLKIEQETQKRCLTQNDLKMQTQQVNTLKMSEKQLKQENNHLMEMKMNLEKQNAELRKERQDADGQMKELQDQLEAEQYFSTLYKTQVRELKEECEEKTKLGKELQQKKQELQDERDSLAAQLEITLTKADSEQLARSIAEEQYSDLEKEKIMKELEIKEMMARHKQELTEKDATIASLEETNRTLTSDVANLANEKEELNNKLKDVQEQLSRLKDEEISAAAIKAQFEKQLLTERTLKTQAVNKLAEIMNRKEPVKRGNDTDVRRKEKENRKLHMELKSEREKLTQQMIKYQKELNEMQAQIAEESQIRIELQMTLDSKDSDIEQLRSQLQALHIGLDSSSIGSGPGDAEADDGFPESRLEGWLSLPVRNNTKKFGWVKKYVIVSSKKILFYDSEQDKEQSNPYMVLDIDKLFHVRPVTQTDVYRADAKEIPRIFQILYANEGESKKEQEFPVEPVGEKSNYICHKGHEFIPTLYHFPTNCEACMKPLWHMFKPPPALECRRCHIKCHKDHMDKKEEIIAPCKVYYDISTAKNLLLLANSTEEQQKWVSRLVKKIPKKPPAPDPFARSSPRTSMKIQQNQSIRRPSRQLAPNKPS

| Compound | IC50 [µM] |
| --- | --- |
| 4-[1-amino-2-(1-methyl-piperidin-1-yl)-2-oxo-ethyl]-N-pyridin-4-yl-benzamide [Compound 26] | < 0.5 |
| NC(C(=O)NCc1ccccc1)c1ccc(C(=O)Nc2ccncc2)cc1 (stereo not shown) [Compound 1] | < 0.5 |
| CC(NC(=O)C(N)c1ccc(C(=O)Nc2ccncc2)cc1)c1ccccc1 (stereo not shown) [Compound 2, 4-[amino-(1-phenyl-ethylcarbamoyl)-methyl]-N-pyridin-4-yl-benzamide] | < 0.5 |
| CN(Cc1ccccc1)C(=O)C(N)c1ccc(C(=O)Nc2ccncc2)cc1 (stereo not shown) [Compound 3, 4-[amino-(benzyl-methyl-carbamoyl)-methyl]-N-pyridin-4-yl-benzamide] | < 0.5 |
| CCC(NC(=O)C(N)c1ccc(C(=O)Nc2ccncc2)cc1)c1ccccc1 (stereo not shown) [Compound 4, 4-[amino-(1-phenyl-propylcarbamoyl)-methyl]-N-pyridin-4-yl-benzamide] | < 0.5 |
| CC[C@H](NC(=O)C(N)c1ccc(C(=O)Nc2ccncc2)cc1)c1ccccc1 (stereo partly drawn) [Compound 5, 4-[amino-(1-(S)-phenyl-propylcarbamoyl)-methyl]-N-pyridin-4-yl-benzamide] | 0.5 to 5 |
| NC(C(=O)NCc1ccccc1Cl)c1ccc(C(=O)Nc2ccncc2)cc1 (stereo not shown) [Compound 6, 4-[amino-(2-chloro-benzylcarbamoyl)-methyl]-N-pyridin-4-yl-benzamide] | < 0.5 |
| NC(C(=O)NCc1cccc(Cl)c1)c1ccc(C(=O)Nc2ccncc2)cc1 (stereo not shown) [Compound 7, 4-[amino-(3-chloro-benzylcarbamoyl)-methyl]-N-pyridin-4-yl-benzamide] | < 0.5 |
| COc1ccc(CNC(=O)C(N)c2ccc(C(=O)Nc3ccncc3)cc2)cc1 (stereo not shown) [Compound 8, 4-[amino-(4-methoxy-benzylcarbamoyl)-methyl]-N-pyridin-4-yl-benzamide] | < 0.5 |
| COc1ccccc1CNC(=O)C(N)c1ccc(C(=O)Nc2ccncc2)cc1 (stereo not shown) [Compound 9, 4-(amino-(2-methoxy-benzylcarbamoyl)-methyl]-N-pyridin-4-yl-benzamide] | < 0.5 |
| NC(C(=O)NCc1ccccn1)c1ccc(C(=O)Nc2ccncc2)cc1 (stereo not shown) [Compound 10, 4-{amino-[(pyridin-2-ylmethyl)-carbamoyl]-methyl}-N-pyridin-4-yl-benzamide] | 0.5 to 5 |
| NC(C(=O)NCc1ccncc1)c1ccc(C(=O)Nc2ccncc2)cc1 (stereo not shown) [Compound 11, 4-{amino-[(pyridin-4-ylmethyl)-carbamoyl]-methyl}-N-pyridin-4-yl-benzamide] | 0.5 to 5 |
| NC(C(=O)NCc1ccco1)c1ccc(C(=O)Nc2ccncc2)cc1 (stereo not shown) [Compound 12, 4-{amino-[(furan-2-ylmethyl)-carbamoyl]-methyl}-N-pyridin-4-yl-benzamide] | < 0.5 |
| NC(C(=O)N1CCc2ccccc2C1)c1ccc(C(=O)Nc2ccncc2)cc1 (stereo not shown) [Compound 13, 4-[1-amino-2-(3,4-dihydro-1H-isoquinolin-2-yl)-2-oxo-ethyl]-N-pyridin-4-yl-benzamide] | < 0.5 |
| NC(C(=O)NCCc1ccccc1)c1ccc(C(=O)Nc2ccncc2)cc1 (stereo not shown) [Compound 14, 4-(amino-phenethylcarbamoyl-methyl)-N-pyridin-4-yl-benzamide] | < 0.5 |
| NC(C(=O)NC1Cc2ccccc2C1)c1ccc(C(=O)Nc2ccncc2)cc1 (stereo not shown) [Compound 15, 4-[amino-(indan-2-ylcarbamoyl)-methyl]-N-pyridin-4-yl-benzamide] | < 0.5 |
| NC(C(=O)NCCc1ccc(F)cc1)c1ccc(C(=O)Nc2ccncc2)cc1 (stereo not shown) [Compound 16, 4-{amino-[2-(4-fluoro-phenyl)ethylcarbamoyl]-methyl}-N-pyridin-4-yl-benzamide] | < 0.5 |
| NC(C(=O)NCCc1cccs1)c1ccc(C(=O)Nc2ccncc2)cc1 (stereo not shown) [Compound 17, 4-[amino-(2-thiophen-2-yl-ethylcarbamoyl)-methyl]-N-pyridin-4-yl-benzamide] | < 0.5 |
| NC(C(=O)NCCn1cccn1)c1ccc(C(=O)Nc2ccncc2)cc1 (stereo not shown) [Compound 18, 4-[amino-(2-pyrazol-1-yl-ethylcarbamoyl)-methyl]-N-pyridin-4-yl-benzamide] | 0.5 to 5 |
| NC(C(=O)NCCn1ccnc1)c1ccc(C(=O)Nc2ccncc2)cc1 (stereo not shown) [Compound 19, 4-[amino-(2-imidazol-1-yl-ethylcarbamoyl)-methyl]-N-pyridin-4-yl-benzamide] | 0.5 to 5 |

Other lines, results leading:

| IC50 [µM] | Compound |
| --- | --- |
| 0.5 to 5 | NC(C(=O)Nc1ccccc1)c1ccc(C(=O)Nc2ccncc2)cc1 (stereo not shown) [Compound 20, 4-(amino-phenylcarbamoyl-methyl)-N-pyridin-4-yl-benzamide] |
| < 0.5 | COc1ccc(NC(=O)C(N)c2ccc(C(=O)Nc3ccncc3)cc2)cc1 (stereo not shown) [Compound 21] |
| 0.5 to 5 | CCNC(=O)C(N)c1ccc(C(=O)Nc2ccncc2)cc1 (stereo not shown) [Compound 22, 4-(amino-ethylcarbamoyl-methyl)-N-pyridin-4-yl-benzamide] |
| 0.5 to 5 | CC(C)C(C)NC(=O)C(N)c1ccc(C(=O)Nc2ccncc2)cc1 (stereo not shown) [Compound 23, 4-[amino-(1,2-dimethyl-propylcarbamoyl)-methyl]-N-pyridin-4-yl-benzamide] |
| 0.5 to 5 | CCC(C)(C)NC(=O)C(N)c1ccc(C(=O)Nc2ccncc2)cc1 (stereo not shown) [Compound 24, 4-[amino-(1,1-dimethyl-propylcarbamoyl)-methyl]-N-pyridin-4-yl-benzamide] |
| 0.5 to 5 | NC(C(=O)NCC1CC1)c1ccc(C(=O)Nc2ccncc2)cc1 (stereo not shown) [Compound 25, 4-[amino-(cyclopropylmethyl-carbamoyl)-methyl]-N-pyridin-4-yl-benzamide] |
| < 0.5 | CC1CC(C)CN(C(=O)C(N)c2ccc(C(=O)Nc3ccncc3)cc2)C1 (stereo not shown) [Compound 27, 4-[1-amino-2-(3,5-dimethyl-piperidin-1-yl)-2-oxo-ethyl]-N-pyridin-4-yl-benzamide] |
| 0.5 to 5 | NC(C(=O)N1CCC(c2ccccc2)CC1)c1ccc(C(=O)Nc2ccncc2)cc1 (stereo not shown) [Compound 28, 4-[1-amino-2-(4-phenyl-piperidin-1-yl)-2-oxo-ethyl]-N-pyridin-4-yl-benzamide] |
| 0.5 to 5 | NC(C(=O)N1CC=C(c2ccc(F)cc2)CC1)c1ccc(C(=O)Nc2ccncc2)cc1 (stereo not shown) [Compound 29, 4-{1-amino-2-[4-(4-fluoro-phenyl)-3,6-dihydro-2H-pyridin-1-yl]-2-oxo-ethyl}-N-pyridin-4-yl-benzamide] |
| < 0.5 | NC(C(=O)N1CCC(c2nc3ccccc3o2)CC1)c1ccc(C(=O)Nc2ccncc2)cc1 (stereo not shown) [Compound 30, 4-[1-amino-2-(4-benzooxazol-2-yl-piperidin-1-yl)-2-oxo-ethyl]-N-pyridin-4-yl-benzamide] |
| 0.5 to 5 | NC(C(=O)N1CCC(Cc2ccccc2)CC1)c1ccc(C(=O)Nc2ccncc2)cc1 (stereo not drawn) [Compound 31, 4-[1-amino-2-(4-benzyl-piperidin-l-yl)-2-oxo-ethyl]-N-pyridin-4-yl-benzamide] |
| 0.5 to 5 | NC(C(=O)NC1CCCCC1)c1ccc(C(=O)Nc2ccncc2)cc1 (stereo not shown) [Compound 32, 4-(amino-cyclohexylcarbamoyl-methyl)-N-pyridin-4-yl-benzamide] |
| 0.5 to 5 | CC1CCC(NC(=O)C(N)c2ccc(C(=O)Nc3ccncc3)cc2)CC1 (stereo not shown) [Compound 33, 4-[amino-(4-methyl-cyclohexylcarbamoyl)-methyl]-N-pyridin-4-yl-benzamide] |
| < 0.5 | NC(C(=O)N1CCOCC1)c1ccc(C(=O)Nc2ccncc2)cc1 (stereo not shown) [Compound 34, 4-(1-amino-2-mopholin-4-yl-2-oxo-ethyl)-N-pyridin-4-yl-benzamide] |
| 0.5 to 5 | CC1CN(C(=O)C(N)c2ccc(C(=O)Nc3ccncc3)cc2)CC(C)O1 (stereo not shown) [Compound 35, 4-[1-amino-2-(2,6-dimethyl-mopholin-4-yl)-2-oxo-ethyl]-N-pyridin-4-yl-benzamide] |
| 0.5 to 5 | NC(C(=O)N1CCCC(CO)C1)c1ccc(C(=O)Nc2ccncc2)cc1 (stereo not shown) [Compound 36, 4-[1-amino-2-(3-hydroxymethyl-piperidin-1-yl)-2-oxo-ethyl]-N-pyridin-4-yl-benzamide] |
| 0.5 to 5 | NC(C(=O)NCC1CCCO1)c1ccc(C(=O)Nc2ccncc2)cc1 (stereo not shown) [Compound 37, 4-{amino-[(tetrahydro-furan-2-ylmethyl)-carbamoyl]-methyl}-N-pyridin-4-yl-benzamide] |
| 0.5 to 5 | NC(C(=O)N1CCC(O)(c2ccccc2)CC1)c1ccc(C(=O)Nc2ccncc2)cc1 (stereo not shown) [Compound 38, 4-[1-amino-2-(4-hydroxy-4-phenyl-piperidin-1-yl)-2-oxo-ethyl]-N-pyridin-4-yl-benzamide] |
| 0.5 to 5 | COCCNC(=O)C(N)c1ccc(C(=O)Nc2ccncc2)cc1 (stereo not shown) [Compound 39, 4-[amino-(2-methoxy-ethylcarbamoyl)-methyl]-N-pyridin-4-yl-benzamide] |
| 0.5 to 5 | CS(=O)(=O)NCCNC(=O)C(N)c1ccc(C(=O)Nc2ccncc2)cc1 (stereo not shown) [Compound 40, 4-[amino-(2-methanesulfonylamino-ethylcarbamoyl)-methyl]-N-pyridin-4-yl-benzamide] |
